We go through 5 compounds from patent US20240374598A1, “INHIBITORS OF HUMAN IMMUNODEFICIENCY VIRUS REPLICATION” (ViiV HEALTHCARE UK (NO.5) LIMITED, priority 2018, published 2024).

The subject of data set [1] is recombinant NL4-3 virus (nef section replaced with Renilla luciferase gene) in MT-2 cells. Description: HIV cell culture assay (antiviral activity, luciferase readout). To be noted: NL43, MT-2 cells infected for 4-5 days with recombinant NL4-3 Renilla luciferase virus. It is filed as cell-based. The method, then: HIV cell culture assay—MT-2 cells, 293T cells and the proviral DNA clone of NL4-3 virus were obtained from the NIH AIDS Research and Reference Reagent Program. MT-2 cells were propagated in RPMI 1640 media supplemented with 10% heat inactivated fetal bovine serum (FBS), […]. The 293T cells were propagated in DMEM media supplemented with 10% heat inactivated FBS, […]. A recombinant NL4-3 proviral clone, in which a section of the nef gene was replaced with the Renilla luciferase gene, was used to make the reference virus used in these studies. The recombinant virus was prepared through transfection of the recombinant NL4-3 proviral clone into 293T cells using Transit-293 Transfection Reagent from Mirus Bio LLC (Madison, WI). Supernatent was harvested after 2-3 days and the amount of virus present was titered in MT-2 cells using luciferase enzyme activity as a marker by measuring luciferase enzyme activity. Luciferase was quantitated using the EnduRen Live Cell Substrate from Promega (Madison, WI). Antiviral activities of compounds toward the recombinant virus were quantified by measuring luciferase activity in MT-2 cells infected for 4-5 days with the recombinant virus in the presence of serial dilutions of the compound.
The 50% effective concentration (EC50) was calculated by using the exponential form of the median effect equation where (Fa)=1/[1+(ED50/drug conc.)m] (Johnson VA, Byington RT. Infectivity Assay. In Techniques in HIV Research. ed. Aldovini A, Walker BD. 71-76. New York: Stockton Press. 1990). The 50% inhibitory concentration (EC50) was calculated by using the exponential form of the median effect equation where percent inhibition=1/[1+(EC50/drug concentration)m], where m is a parameter that reflects the slope of the concentration-response curve.

Data set [2] is described as follows: Compound cytotoxicity, XTT-based colorimetric assay. To be noted: human; uninfected MT2 cells, day 4, XTT assay. The class given is cell-based. The method, then:
Compound cytotoxicity and the corresponding CC50 values were determined using the same protocol as described in the antiviral assay except that uninfected cells were used. Cytotoxicity was assessed on day 4 in uninfected MT2 cells by using a XTT (2,3-bis[2-Methoxy-4-nitro-5-sulfophenyl]-2H-tetrazolium-5-carboxyanilide inner salt)-based colorimetric assay (Sigma-Aldrich, St Louis, Mo).
A general note: Tetrazolium assays rely on reduction of a dye to a coloured formazan, in cell work by metabolically active cells.

Structures are written as SMILES.

What is called EC50 is the midpoint of the concentration-response curve. As usually defined, the CC50 is the concentration that lowers cell viability or growth by half.

`Cn1nc(NS(C)(=O)=O)c2c(Cl)ccc(-n3c([C@H](Cc4cc(F)cc(F)c4)NC(=O)Cn4nc(C(F)F)c5c4C(F)(F)[C@@H]4C[C@H]54)nc4cc(Br)ccc4c3=O)c21` [Example 1, N—((S)-1-(7-bromo-3-(4-chloro-1-methyl-3-(methylsulfonamido)-1H-indazol-7-yl)-4-oxo-3,4-dihydroquinazolin-2-yl)-2-(3,5-difluorophenyl)ethyl)-2-((3bS,4aR)-3-(difluoromethyl)-5,5-difluoro-3b,4,4a,5-tetrahydro-1H-cyclopropa[3,4]cyclopenta[1,2-c]pyrazol-1-yl)acetamide]: the EC50 in data set [1] was 0.046 nM. Moreover, the CC50 at 4 day in data set [2] is over 1000 nM.
Taken in the same sequence, the figures for `CC(C)COc1ccc2c(=O)n(-c3ccc(Cl)c4c(NS(C)(=O)=O)nn(C)c34)c([C@H](Cc3cc(F)cc(F)c3)NC(=O)Cn3nc(C(F)F)c4c3C(F)(F)[C@@H]3C[C@H]43)nc2c1` [Example 12, N—((S)-1-(3-(4-chloro-1-methyl-3-(methylsulfonamido)-1H-indazol-7-yl)-7-isobutoxy-4-oxo-3,4-dihydroquinazolin-2-yl)-2-(3,5-difluorophenyl)ethyl)-2-((3bS,4aR)-3-(difluoromethyl)-5,5-difluoro-3b,4,4a,5-tetrahydro-1H-cyclopropa[3,4]cyclopenta[1,2-c]pyrazol-1-yl)acetamide] were 0.109 nM and over 1000 nM.
For the compound `COc1cc(F)c2c(=O)n(-c3ccc(Cl)c4c(NS(=O)(=O)C5CC5)nn(CC(F)F)c34)c([C@H](Cc3cc(F)cc(F)c3)NC(=O)Cn3nc(C(F)F)c4c3C(F)(F)[C@@H]3C[C@H]43)nc2c1` [Example 8, N—((S)-1-(3-(4-chloro-3-(cyclopropanesulfonamido)-1-(2,2-difluoroethyl)-1H-indazol-7-yl)-5-fluoro-7-methoxy-4-oxo-3,4-dihydroquinazolin-2-yl)-2-(3,5-difluorophenyl)ethyl)-2-((3bS,4aR)-3-(difluoromethyl)-5,5-difluoro-3b,4,4a,5-tetrahydro-1H-cyclopropa[3,4]cyclopenta[1,2-c]pyrazol-1-yl)acetamide], the EC50 in data set [1] was determined as 0.15 nM. Besides, the CC50 at 4 day in data set [2] is over 1000 nM.
As to `Cn1nc(NS(C)(=O)=O)c2c(CCC(F)(F)F)ccc(-n3c([C@H](Cc4cc(F)cc(F)c4)NC(=O)Cn4nc(C(F)F)c5c4C(F)(F)[C@@H]4C[C@H]54)nc4cc(CCC(F)(F)F)ccc4c3=O)c21` [Example 22, 2-((3bS,4aR)-3-(difluoromethyl)-5,5-difluoro-3b,4,4a,5-tetrahydro-1H-cyclopropa[3,4]cyclopenta[1,2-c]pyrazol-1-yl)-N—((S)-2-(3,5-difluorophenyl)-1-(3-(1-methyl-3-(methylsulfonamido)-4-(3,3,3-trifluoropropyl)-1H-indazol-7-yl)-4-oxo-7-(3,3,3-trifluoropropyl)-3,4-dihydroquinazolin-2-yl)ethyl)acetamide], the EC50 in data set [1] is 0.573 nM. The same compound yielded a CC50 at 4 day in data set [2] of over 1000 nM.
As to `CC(C)Cc1ccc2c(=O)n(-c3ccc(Cl)c4c(NS(C)(=O)=O)nn(C)c34)c([C@H](Cc3cc(F)cc(F)c3)NC(=O)Cn3nc(C(F)F)c4c3C(F)(F)[C@@H]3C[C@H]43)nc2c1` [Example 25, N—((S)-1-(3-(4-chloro-1-methyl-3-(methylsulfonamido)-1H-indazol-7-yl)-7-isobutyl-4-oxo-3,4-dihydroquinazolin-2-yl)-2-(3,5-difluorophenyl)ethyl)-2-((3bS,4aR)-3-(difluoromethyl)-5,5-difluoro-3b,4,4a,5-tetrahydro-1H-cyclopropa[3,4]cyclopenta[1,2-c]pyrazol-1-yl)acetamide], the EC50 in data set [1] came out at 0.167 nM. The compound also returned a CC50 at 4 day in data set [2] of over 1000 nM.
